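Exposure lasted 48 hours, with cells grown in 96-well plates and compounds tested at five concentrations. GI50: concentration for 50% inhibition of growth.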 Activity calls are given as the source filed them. Rule as the data show it: active = GI50 up to about 1.1 µM and inactive = higher.
Tests used:
Assay in all cases: NCI tumour cell line growth inhibition, 48 h
COLO 205 = test system: COLO 205
MOLT-4 = test system: MOLT-4
KM12 = test system: KM12
SNB-75 = test system: SNB-75
UO-31 = test system: UO-31
786-0 = test system: 786-0
SF-268 = test system: SF-268
MDA-MB-435 = test system: MDA-MB-435
Hs-578T = test system: Hs-578T
T47D = test system: T47D
MCF7 = test system: MCF7
K562 = test system: K562
ACHN = test system: ACHN
DU-145 = test system: DU-145
MDA-MB-231 = test system: MDA-MB-231
HCT-15 = test system: HCT-15
UACC-257 = test system: UACC-257
NCI/ADR-RES = test system: NCI/ADR-RES
SF-539 = test system: SF-539
HOP-92 = test system: HOP-92
HT-29 = test system: HT-29
SK-MEL-2 = test system: SK-MEL-2
RXF 393 = test system: RXF 393
SW-620 = test system: SW-620
SF-295 = test system: SF-295
EKVX = test system: EKVX
SN12C = test system: SN12C
A498 = test system: A498
SR = test system: SR
OVCAR-8 = test system: OVCAR-8
HL-60 = test system: HL-60
UACC-62 = test system: UACC-62
CAKI-1 = test system: CAKI-1
TK-10 = test system: TK-10
SNB-19 = test system: SNB-19
A549 = test system: A549
SK-MEL-28 = test system: SK-MEL-28
M14 = test system: M14
HCT-116 = test system: HCT-116
HOP-62 = test system: HOP-62
RPMI-8226 = test system: RPMI-8226
OVCAR-4 = test system: OVCAR-4
NCI-H23 = test system: NCI-H23
OVCAR-3 = test system: OVCAR-3
HCC 2998 = test system: HCC 2998
CCRF-CEM = test system: CCRF-CEM
IGROV-1 = test system: IGROV-1
NCI-H226 = test system: NCI-H226
NCI-H522 = test system: NCI-H522
SK-OV-3 = test system: SK-OV-3
U-251 = test system: U-251
PC-3 = test system: PC-3
LOX IMVI = test system: LOX IMVI
OVCAR-5 = test system: OVCAR-5

Measured: GI50

O=C1CC(c2cccc(Br)c2)n2cccc21 (centres undefined)
inactive: COLO 205 > 100 µM | MOLT-4 40.1 µM | KM12 46.2 µM | SNB-75 35.3 µM | UO-31 21.5 µM | 786-0 > 100 µM | SF-268 67.8 µM | MDA-MB-435 > 100 µM | Hs-578T 28.2 µM | T47D 63.4 µM | MCF7 86.9 µM | K562 72.3 µM | ACHN 68.5 µM | DU-145 > 100 µM | MDA-MB-231 > 100 µM | UACC-257 > 100 µM | NCI/ADR-RES > 100 µM | SF-539 > 100 µM | HOP-92 81.3 µM | HT-29 93.1 µM | SK-MEL-2 29 µM | RXF 393 > 100 µM | SW-620 > 100 µM | SF-295 > 100 µM | EKVX > 100 µM | SN12C > 100 µM | A498 > 100 µM | SR 51.2 µM | OVCAR-8 > 100 µM | HL-60 28.1 µM | UACC-62 > 100 µM | CAKI-1 44.6 µM | TK-10 > 100 µM | SNB-19 > 100 µM | A549 62.1 µM | SK-MEL-28 > 100 µM | M14 80.7 µM | HCT-116 > 100 µM | HOP-62 > 100 µM | RPMI-8226 > 100 µM | OVCAR-4 88.9 µM | NCI-H23 63.5 µM | OVCAR-3 > 100 µM | HCC 2998 54.7 µM | CCRF-CEM > 100 µM | IGROV-1 57.3 µM | NCI-H226 92.9 µM | NCI-H522 47.2 µM | SK-OV-3 > 100 µM | U-251 > 100 µM | PC-3 39.5 µM | LOX IMVI > 100 µM | OVCAR-5 > 100 µM
92.9 µM: HCT-15

— ChEMBL document CHEMBL1201862, “PubChem BioAssay data set” (2004)
